Experimental data reported in US20240027453A1, “METHOD FOR DETECTION AND QUANTITATIVE MONITORING OF INFECTIONS WITH HERPESVIRUSES” (The Trustees of Princeton University, priority 2020, published 2024).
Where two headings read alike, the source gives them in different places.

Tested on: HCMV
Type: cell-based
Details: FIG. 7A
Description: In example herpesvirus PRM assay methods shown herein, cell pellets were lysed in 2% SDS, 100 mM NaCl, 0.5 mM EDTA, 50 mM Tris, pH 8.2, and 50 μg of protein was reduced and alkylated with 25 mM TCEP and 50 mM CAM respectively for 20 min at 70° C. Proteins were then precipitated via methanol chloroform precipitation (Wessel & Flugg, Anal Biochem. 138(1):141-143, 1984), resuspended in 50 mM HEPES, pH 8.2 and digested overnight with trypsin (50:1 protein:enzyme w/w ratio). Digested peptides were desalted by SDB-RPS StageTip as previously described (Lum et al., Cell Syst., 7(6):[…], 2018; Greco et al., Methods Mol Biol 1410:39-63, 2016; Federspiel & Cristea, Methods Mol Biol., 1977:115-143, 2019).
Peptides (1.0 μg on column) were analyzed by LC-MS/MS using a Dionex Ultimate 3000 UHPLC coupled online to an EASYSpray ion source and a Q Exactive HF. Peptides were separated on an EASYSpray C18 column (75 μm×25 cm) heated to 50° C. using a linear gradient of 5% B to 32% B over 60 min at a flow rate of 250 nL/min and were ionized at 1.7 kv. Mobile phase A consisted of 0.1% FA in H2O and mobile phase B consisted of 0.1% FA, 2.9% H2O in ACN.
The PRM method was controlled by a peptide inclusion list with retention time windows of 6 min for selected precursor ions.
The PRM assay was developed and analyzed using the open-source software Skyline (Maclean et al., Bioinformatics 26(7):966-968, 2010). Summed area under the curve of 3-4 transitions per peptide was used for quantitation. Targeted peptides were normalized to host protein loading control peptides. Peptide values for each sample were scaled to the average of each peptide across all runs. The average of multiple peptides was used as the inferred value for the protein measurement when more than one peptide was quantified (Federspiel et al., PLoS Biol. 17(9):e3000437. Doi: 10.1371/journal.pbio.3000437). PRM quantitation data were graphed using the Python Seaborn and Matplotlib libraries.
MRC5 primary human fibroblasts (HFs) (ATCC CCL-171) were used as the model system for HSV-1 and HCMV infections and were cultured in complete growth medium (DMEM supplemented with 10% fetal bovine serum and 1% penicillin-streptomycin antibiotics) at 37° C. and 5% CO2. iSLK.219 cells harboring latent KSHV (a gift from Dr. Britt Glaunsinger, University of California, Berkeley) were grown in complete growth medium supplemented with 500 μg/ml hygromycin (ThermoFisher Scientific, 10687010) at 37° C. and 5% CO2. All cells were used for experiments within a maximum of 10 passages.
Wild type HSV-1 strain 17+ (a gift from Beate Sodeik, Hannover Medical School, Hannover, Germany) was propagated as previously described (Diner et al., 2015). Briefly, PO stocks were generated by electroporating pBAC-HSV-1 into U-2 OS cells. […] In a similar manner, wild type HCMV strain AD169 was produced from BAC electroporation into HFs and working stocks were propagated by infecting HFs at a low level. In both cases, cell-associated virus was released by sonication, combined with supernatant virus, then concentrated by ultracentrifugation (20,000 rpm, 2 hours, 4° C. with SW28 swinging bucket rotor [Beckman Coulter]) over a 10% ficoll (HSV-1) or 20% sorbitol (HCMV) cushion. Virus stock titers were determined by plaque assay for HSV-1 or tissue culture infectious dose (TCID50) for HCMV and infections were performed at a multiplicity of infection (MOI) of 3.
12 hours prior to virus infection or reactivation, cells were treated with either the small molecule drug or DMSO/PBS control at an equivalent volume. […] For infection cycles lasting longer than 24 hours, small molecule drugs were re-added to the cell culture medium every 24 hours. Upon collection, cells were rinsed with PBS, scraped into a microcentrifuge tube, pelleted by centrifugation, and rinsed again with PBS.

## Oc1ccc(C=Cc2cc(O)cc(O)c2)cc1 [Resveratrol]
Timepoint 24, DE
  CVC2 (P16726) protein level: 0.02416
  DBP (P17147) protein level: 0.2603
  HELI (P16736) protein level: 0.5239
  IR01 (P09710) protein level: 0.2395
  NEC2 (P16791) protein level: 0.05031
  TRM1 (P16724) protein level: 0.0496
  UL4 (P17146) protein level: 0.02792
  UL26 (P16762) protein level: 0.08745
  UL32 (P08318) protein level: 0.02724
  UL34 (P16812) protein level: 0.1096
  UL38 (P16779) protein level: 0.9691
  UL44 (P16790) protein level: 0.0591
  UL48 (P16785) protein level: 0.02194
  UL54 (P08546) protein level: 0.6295
  UL71 (P16823) protein level: 0.5252
  UL78 (P16751) protein level: 1.896
  UL84 (P16727) protein level: 0.1406
  UL95 (P16801) protein level: 0.06756
  UL96 (P16787) protein level: 0.4727
  UL97 (P16788) protein level: 0.3652
  UL98 (P16789) protein level: 0.2979
  UL102 (P16827) protein level: 0.889
  UL104 (P16735) protein level: 0.07335
  UL112/UL113 (P17151) protein level: 0.3601
  UL114 (P16769) protein level: 0.8008
  UL119/UL118 (P16739) protein level: 0.5596
  UL128 (P16837) protein level: 0.08035
  US8 (P09730) protein level: 0.9856
  US9 (P09729) protein level: 1.12
  US12 (P09721) protein level: 1.673
  US13 (P09720) protein level: 0.5476
  US14 (P09719) protein level: 0.3883
  US22 (P09722) protein level: 0.3379
  US23 (P09701) protein level: 1.209
  US24 (P09700) protein level: 1.019
  US34 (P09709) protein level: 2.475
  gB (P06473) protein level: 0.2035
Timepoint 24, IE
  IRS1 (P09715) protein level: 0.53
  TRS1 (P09695) protein level: 0.2907
  UL13 (P16755) protein level: 2.216
  UL36 (P16767) protein level: 1.36
  UL37 (P16778) protein level: 0.9797
  UL122 (P19893) protein level: 0.06584
  UL123 (P13202) protein level: 1.053
Timepoint 24, L
  CVC1 (P16799) protein level: 0.1335
  IR11 (P16809) protein level: 0.4092
  MCP (P16729) protein level: 0.005554
  TRM2 (P16792) protein level: 0.01236
  UL22A (P16845) protein level: 0.06878
  UL25 (P16761) protein level: 0.02173
  UL29 (P16764) protein level: 0.6989
  UL31 (P16848) protein level: 0.4434
  UL43 (P16781) protein level: 0.0621
  UL52 (P16793) protein level: 0.02488
  UL80 (P16753) protein level: 0.03642
  UL82 (P06726) protein level: 0.2024
  UL88 (P16731) protein level: 0.05174
  UL94 (P16800) protein level: 0.1027
  UL99 (P13200) protein level: 0.04805
  UL103 (P16734) protein level: 0.3861
  UL117 (P16770) protein level: 0.7439
  gH (P12824) protein level: 0.08651
  gL (P16832) protein level: 0.03756
  gM (P16733) protein level: 0.04047
  gN (P16795) protein level: 0.1854
Timepoint 24, LL
  DUT (P16824) protein level: 0.3815
  IR12 (P16810) protein level: 0.1305
  TRX1 (P16783) protein level: 0.007402
  TRX2 (P16728) protein level: 0.006335
  UL24 (P16760) protein level: 0.115
  UL40 (P16780) protein level: 0.6816
  UL47 (P16784) protein level: 0.01314
  UL49 (P16786) protein level: 0.3801
  UL69 (P16749) protein level: 0.259
  UL70 (P17149) protein level: 0.2151
  UL83 (P06725) protein level: 0.04868
  UL132 (P69338) protein level: 0.1519
  US15 (P09718) protein level: 2.089
Timepoint 48, DE
  CVC2 (P16726) protein level: 0.04895
  DBP (P17147) protein level: 0.3174
  HELI (P16736) protein level: 0.7035
  IR01 (P09710) protein level: 0.3325
  NEC2 (P16791) protein level: 0.1347
  RIR1 (P16782) protein level: 0.1467
  TRM1 (P16724) protein level: 0.1744
  UL4 (P17146) protein level: 0.1071
  UL26 (P16762) protein level: 0.09224
  UL32 (P08318) protein level: 0.06407
  UL34 (P16812) protein level: 0.1265
  UL35 (P16766) protein level: 0.02653
  UL38 (P16779) protein level: 0.8069
  UL44 (P16790) protein level: 0.09657
  UL48 (P16785) protein level: 0.05393
  UL54 (P08546) protein level: 0.9464
  UL71 (P16823) protein level: 0.3661
  UL78 (P16751) protein level: 1.07
  UL84 (P16727) protein level: 0.1489
  UL95 (P16801) protein level: 0.2914
  UL96 (P16787) protein level: 0.3861
  UL97 (P16788) protein level: 0.3732
  UL98 (P16789) protein level: 0.3412
  UL102 (P16827) protein level: 1.27
  UL104 (P16735) protein level: 0.1091
  UL112/UL113 (P17151) protein level: 0.4545
  UL114 (P16769) protein level: 1.322
  UL119/UL118 (P16739) protein level: 0.6367
  UL128 (P16837) protein level: 0.03596
  US8 (P09730) protein level: 1.343
  US9 (P09729) protein level: 2.242
  US12 (P09721) protein level: 0.8964
  US13 (P09720) protein level: 0.5923
  US14 (P09719) protein level: 0.2304
  US22 (P09722) protein level: 0.5371
  US23 (P09701) protein level: 0.5982
  US24 (P09700) protein level: 0.4857
  US34 (P09709) protein level: 2.409
  gB (P06473) protein level: 0.1991
Timepoint 48, IE
  IRS1 (P09715) protein level: 0.8671
  TRS1 (P09695) protein level: 0.7123
  UL13 (P16755) protein level: 0.6646
  UL36 (P16767) protein level: 1.045
  UL37 (P16778) protein level: 1.143
